From patent US10941114B2, “Small molecule lipid II inhibitors” (University Of Maryland, Baltimore, priority 2015, dated 2021) come the findings set out here.

Experiment in all cases: Antibacterial activity assay (MIC, broth dilution)
Format in all cases: cell-based
For orientation: Broth dilution looks for growth in wells or tubes with falling amounts of substance.

One assay has as its system Enterococcus faecium. To be noted: Enterococcus faecium; Table 16; CLSI M07-A10 dilution method; read-out: MIC E. faecium. How it is done:
(§1) Determination of the Minimal Inhibitory Concentrations (MIC) by dilution was carried out by broth dilution according to CLSI standards. See CLSI, Methods for Dilution Antimicrobial Susceptibility Tests for Bacteria That Grow Aerobically; Approved Standard—Eighth Edition. 2009, the contents of which are hereby incorporated by reference. Briefly, the minimum inhibitory concentration MIC, is the lowest concentration of a compound that prevents visible growth of a bacterium, in other words at which it has bacteriostatic activity.
For these tests, cation-adjusted Mueller Hinton broth, containing 10% brain-heart infusion (BHI) was used. Concentrations (MIC) are given in μg/mL. The compound was […].
(§2) Compounds were tested for MIC by methods known in the art and described in CLSI, Methods for Dilution Antimicrobial Susceptibility Tests for Bacteria That Grow Aerobically; Approved Standard—Tenth Edition. CLSI document M07-A10. Wayne, Pa.: Clinical and Laboratory Standards Institute, 2015, which is hereby incorporated by reference for these methods.
(§3) Selected compounds also were tested by broth microdilution methods known in the art and described in CLSI, Methods for Dilution Antimicrobial Susceptibility Tests for Bacteria That Grow Aerobically; Approved Standard—Tenth Edition. CLSI document M07-A10. Wayne, Pa.: Clinical and Laboratory Standards Institute, 2015, which is hereby incorporated by reference. Structures of selected compounds in the tables are listed below.

A further assay relates to Acinetobacter baumannii. The settings on record: Acinetobacter baumannii; Table 16; CLSI M07-A10 dilution method; read-out: MIC A. baumannii. How it is done: as §1, §2, §3
A further assay deals with Staphylococcus aureus. To be noted: Staphylococcus aureus; Table 16; CLSI M07-A10 dilution method; read-out: MIC S. aureus.

Some results are limits rather than exact numbers.

As a reminder, the MIC is the least concentration at which growth counts as inhibited. For the compound `CN(C)c1ccc(/C=C/c2cc(-c3cccc(Br)c3)cc(-c3ccc(Br)cc3)[n+]2C)cc1` [Compound 9b], the MIC in the assay with Enterococcus faecium worked out at 2 µg/mL; with Acinetobacter baumannii, 16 µg/mL; in the assay with Staphylococcus aureus it was 1 µg/mL.

Turning to `CN(C)c1ccc(/C=C/c2cc(-c3ccc(Cl)cc3)cc(-c3ccc(Br)cc3)[n+]2C)cc1.[I-]` [Compound 9c, (E)-2-(4-bromophenyl)-4-(4-chlorophenyl)-6-(4-(dimethylamino)styryl)-1-methylpyridin-1-ium iodide], the MIC amounted to 4 µg/mL in the assay with Enterococcus faecium, 16 µg/mL with Acinetobacter baumannii and 0.5 µg/mL in the assay with Staphylococcus aureus.

Regarding `Cc1ccc(/C=C/c2cc(-c3ccc(Br)cc3)cc(-c3ccc(Br)cc3)[n+]2C)cc1.[I-]` [Compound 9d, (E)-2,4-bis(4-bromophenyl)-1-methyl-6-(4-methylstyryl)pyridin-1-ium iodide], the results for the MIC in the assay with Enterococcus faecium, in the assay on Acinetobacter baumannii and in the assay with Staphylococcus aureus were 4 µg/mL, over 64 µg/mL and 1 µg/mL, respectively.

On to `CC[n+]1c(/C=C/c2ccc(N(C)C)cc2)cc(-c2ccc(Br)cc2)cc1-c1ccc(C)cc1.[I-]` [Compound 9e1, (E)-4-(4-bromophenyl)-2-(4-(dimethylamino)styryl)-1-ethyl-6-(p-tolyl)pyridin-1-ium iodide], for which the MIC in the assay with Enterococcus faecium is 2 µg/mL; in the assay with Acinetobacter baumannii it was 4 µg/mL; with Staphylococcus aureus, 2 µg/mL.

For the compound `CC[n+]1c(/C=C/c2ccc(N(C)CCO)cc2)cc(-c2ccc(Br)cc2)cc1-c1ccc(C)cc1` [Compound 9e2], the results for the MIC with Enterococcus faecium, with Acinetobacter baumannii and in the assay on Staphylococcus aureus were 4 µg/mL, 4 µg/mL and 2 µg/mL, respectively.

As for `CCC[n+]1c(/C=C/c2ccc(N(C)C)cc2)cc(-c2ccc(Br)cc2)cc1-c1ccc(C)cc1.[I-]` [Compound 9e3, (E)-4-(4-bromophenyl)-2-(4-(dimethylamino)styryl)-1-propyl-6-(p-tolyl)-pyridin-1-ium iodide], the results for the MIC with Enterococcus faecium, with Acinetobacter baumannii and in the assay with Staphylococcus aureus were 2 µg/mL, 2 µg/mL and 0.5 µg/mL, respectively.

On to `CCN(CC)c1ccc(/C=C/c2cc(-c3ccc(Br)cc3)cc(-c3ccc(Br)cc3)[n+]2C)cc1.[I-]` [Compound 9f, (E)-2,4-bis(4-bromophenyl)-6-(4-(diethylamino)styryl)-1-methylpyridin-1-ium iodide], for which the results for the MIC in the assay on Enterococcus faecium, in the assay with Acinetobacter baumannii and in the assay on Staphylococcus aureus were 2 µg/mL, 32 µg/mL and 1 µg/mL, respectively.

Turning to `CN(CCO)c1ccc(/C=C/c2cc(-c3ccc(Br)cc3)cc(-c3ccc(Br)cc3)[n+]2C)cc1.[I-]` [Compound 9g, (E)-2,4-bis(4-bromophenyl)-6-(4-((2-hydroxyethyl)(methyl)amino)styryl)-1-methylpyridin-1-ium iodide], the MIC was 8 µg/mL in the assay with Enterococcus faecium, 32 µg/mL in the assay on Acinetobacter baumannii and 16 µg/mL in the assay on Staphylococcus aureus.

As to `CCN(C)c1ccc(/C=C/c2cc(-c3ccc(Br)cc3)cc(-c3ccc(Br)cc3)[n+]2C)cc1.[I-]` [Compound 9h, (E)-2,4-bis(4-bromophenyl)-6-(4-(ethyl(methyl)amino)styryl)-1-methylpyridin-1-ium iodide], the MIC was determined as 8 µg/mL with Enterococcus faecium, 8 µg/mL in the assay with Acinetobacter baumannii and 16 µg/mL in the assay with Staphylococcus aureus.

With `CCN(CC)c1ccc(/C=C/c2cc(-c3ccc(Br)cc3)cc(-c3ccc(Br)cc3)[n+]2C)cc1F.[I-]` [Compound 9j, (E)-2,4-bis(4-bromophenyl)-6-(4-(diethylamino)-3-fluorostyryl)-1-methyl-pyridin-1-ium iodide], the figures for the MIC in the assay with Enterococcus faecium, in the assay on Acinetobacter baumannii and in the assay with Staphylococcus aureus were 32 µg/mL, 64 µg/mL and 32 µg/mL, respectively.

Take `CN(CCC#N)c1ccc(/C=C/c2cc(-c3ccc(Br)cc3)cc(-c3ccc(Br)cc3)[n+]2C)cc1.[I-]` [Compound 9k, (E)-2,4-bis(4-bromophenyl)-6-(4-((2-cyanoethyl)(methyl)amino)styryl)-1-methylpyridin-1-ium iodide]: the MIC turned out to be 32 µg/mL in the assay with Enterococcus faecium, 64 µg/mL in the assay with Acinetobacter baumannii and 32 µg/mL with Staphylococcus aureus.

Take `CN(C)c1ccc(/C=C/c2cc(-c3ccc(Br)cc3)cc(-c3cccc(Br)c3)[n+]2C)cc1.[I-]` [Compound 9l, (E)-2-(3-bromophenyl)-4-(4-bromophenyl)-6-(4-(dimethylamino)styryl)-1-methylpyridin-1-ium iodide]: the MIC in the assay on Enterococcus faecium is 4 µg/mL; with Acinetobacter baumannii, 16 µg/mL; with Staphylococcus aureus it was 8 µg/mL.

On to `CCN(CC)c1ccc(/C=C/c2cc(-c3ccc(Br)cc3)cc(-c3cccc(Br)c3)[n+]2C)cc1.[I-]` [Compound 9m, (E)-2-(3-bromophenyl)-4-(4-bromophenyl)-6-(4-(diethylamino)styryl)-1-methylpyridin-1-ium iodide], for which the MIC came out at 4 µg/mL in the assay with Enterococcus faecium, 8 µg/mL in the assay with Acinetobacter baumannii and 8 µg/mL with Staphylococcus aureus.

For `Cc1ccc(-c2cc(-c3ccc(Cl)cc3)cc(/C=C/c3ccc(N(C)C)cc3)[n+]2C)cc1.[I-]` [Compound 9n, (E)-4-(4-chlorophenyl)-2-(4-(dimethylamino)styryl)-1-methyl-6-(p-tolyl)-pyridin-1-ium iodide], the MIC was determined as 2 µg/mL in the assay with Enterococcus faecium, 4 µg/mL in the assay on Acinetobacter baumannii and 4 µg/mL in the assay with Staphylococcus aureus.

As for `CCN(CC)c1ccc(/C=C/c2cc(-c3ccc(Cl)cc3)cc(-c3ccc(C)cc3)[n+]2C)cc1.[I-]` [Compound 9o, (E)-4-(4-chlorophenyl)-2-(4-(diethylamino)styryl)-1-methyl-6-(p-tolyl)pyridin-1-ium iodide], the MIC came out at 16 µg/mL in the assay with Enterococcus faecium, 16 µg/mL in the assay on Acinetobacter baumannii and 32 µg/mL with Staphylococcus aureus.

For `Cc1ccc(-c2cc(-c3ccc(Cl)cc3)cc(/C=C/c3ccc(N(C)CCC#N)cc3)[n+]2C)cc1.[I-]` [Compound 9q, (E)-4-(4-chlorophenyl)-2-(4-((2-cyanoethyl)(methyl)amino)styryl)-1-methyl-6-(p-tolyl)pyridin-1-ium iodide], the figures for the MIC in the assay with Enterococcus faecium, in the assay on Acinetobacter baumannii and in the assay with Staphylococcus aureus were 2 µg/mL, 16 µg/mL and 0.25 µg/mL, respectively.

`CCN(CC)c1ccc(/C=C/c2cc(-c3ccc(Br)cc3)cc(-c3ccc(C)cc3C)[n+]2C)cc1.[I-]` [Compound 9r, (E)-4-(4-bromophenyl)-2-(4-(diethylamino)styryl)-6-(2,4-dimethylphenyl)-1-methylpyridin-1-ium iodide]: the figures for the MIC in the assay with Enterococcus faecium, in the assay with Acinetobacter baumannii and in the assay on Staphylococcus aureus were 1 µg/mL, 8 µg/mL and 0.5 µg/mL, respectively.

Take `Cc1ccc(-c2cc(-c3ccc(Br)cc3)cc(/C=C/c3ccc(N(C)CCO)cc3)[n+]2C)c(C)c1.[I-]` [Compound 9t, (E)-4-(4-bromophenyl)-2-(2,4-dimethylphenyl)-6-(4-((2-hydroxyethyl)(methyl)-amino)styryl)-1-methylpyridin-1-ium iodide]: the results for the minimum inhibitory concentration (MIC) in the assay on Enterococcus faecium, in the assay on Acinetobacter baumannii and with Staphylococcus aureus were 2 µg/mL, 16 µg/mL and 0.5 µg/mL, respectively.

As to `Cc1ccc(-c2cc(-c3ccc(Br)cc3)cc(/C=C/c3ccc(N(C)CCC#N)cc3)[n+]2C)cc1C.[I-]` [Compound 9u, (E)-4-(4-bromophenyl)-2-(4-((2-cyanoethyl)(methyl)amino)styryl)-6-(3,4-dimethylphenyl)-1-methylpyridin-1-ium iodide], the MIC with Enterococcus faecium was determined as 8 µg/mL; with Acinetobacter baumannii, 16 µg/mL; in the assay with Staphylococcus aureus, 2 µg/mL.

Consider `Cc1ccc(-c2cc(-c3ccc(Br)cc3)cc(/C=C/c3ccc(N(C)C)cc3)[n+]2C)cc1C.[I-]` [Compound 9w, (E)-4-(4-bromophenyl)-2-(4-(dimethylamino)styryl)-6-(3,4-dimethylphenyl)-1-methylpyridin-1-ium iodide], for which the MIC with Enterococcus faecium came to 4 µg/mL; with Acinetobacter baumannii, 8 µg/mL; with Staphylococcus aureus, 1 µg/mL.

With `Cc1ccc(-c2cc(-c3ccc(Br)cc3)cc(/C=C/c3ccc(N(C)CCO)cc3)[n+]2C)cc1C.[I-]` [Compound 9x, (E)-4-(4-bromophenyl)-2-(3,4-dimethylphenyl)-6-(4-((2-hydroxyethyl)(methyl)-amino)styryl)-1-methylpyridin-1-ium iodide], the MIC in the assay with Enterococcus faecium was 8 µg/mL; in the assay on Acinetobacter baumannii it was 16 µg/mL; with Staphylococcus aureus, 1 µg/mL.

On to `COc1cc(-c2cc(/C=C/c3ccc(N(C)C)cc3)[n+](C)c(-c3ccc(Br)cc3)c2)cc(OC)c1Br.[I-]` [Compound 9y1, (E)-4-(4-bromo-3,5-dimethoxyphenyl)-2-(4-bromophenyl)-6-(4-(dimethyl-amino)styryl)-1-methylpyridin-1-ium iodide], for which the results for the MIC in the assay on Enterococcus faecium, in the assay on Acinetobacter baumannii and with Staphylococcus aureus were 8 µg/mL, 16 µg/mL and 2 µg/mL, respectively.

Take `CCN(CC)c1ccc(/C=C/c2cc(-c3cc(OC)c(Br)c(OC)c3)cc(-c3ccc(Br)cc3)[n+]2C)cc1.[I-]` [Compound 9y2, (E)-4-(4-bromo-3,5-dimethoxyphenyl)-2-(4-bromophenyl)-6-(4-(diethylamino)-styryl)-1-methylpyridin-1-ium iodide]: the MIC in the assay on Enterococcus faecium worked out at 4 µg/mL; with Acinetobacter baumannii, 8 µg/mL; in the assay with Staphylococcus aureus, 1 µg/mL.
